Measurements published in ChEMBL document CHEMBL4196115 (ACS Med Chem Lett, 2018).
Converted amounts (≈) assume the structure as drawn. Values belong to the molecule of their own block, whether it stands above or below them.

Experiments:
[1] = target: T1, Muscarinic acetylcholine receptor M1 (Homo sapiens) (UniProt P11229); assay: Positive allosteric modulation of human muscarinic acetylcholine receptor M1 expressed in CHO cells assessed as increase in acetylcholine-induced calcium mobilization pretreated for 4 mins followed by acetylcholine addition and measured after 4 mins by Fluo-4-AM dye based FLIPR assay; assay type: functional, cell-based
T1 sequence (whole entry): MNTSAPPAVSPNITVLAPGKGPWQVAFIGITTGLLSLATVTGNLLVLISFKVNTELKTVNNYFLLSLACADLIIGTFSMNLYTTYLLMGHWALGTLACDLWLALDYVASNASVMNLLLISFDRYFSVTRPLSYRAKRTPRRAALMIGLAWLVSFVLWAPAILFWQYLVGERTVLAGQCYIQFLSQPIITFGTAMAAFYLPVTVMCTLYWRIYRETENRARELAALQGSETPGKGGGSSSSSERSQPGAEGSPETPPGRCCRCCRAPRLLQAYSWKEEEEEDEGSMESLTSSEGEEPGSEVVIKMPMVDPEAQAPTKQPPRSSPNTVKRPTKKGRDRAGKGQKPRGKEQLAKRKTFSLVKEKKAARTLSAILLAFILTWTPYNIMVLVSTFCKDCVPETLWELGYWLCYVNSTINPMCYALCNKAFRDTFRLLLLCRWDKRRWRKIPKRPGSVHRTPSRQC

[2] = Volume of distribution at steady state in rhesus monkey at 1 mg/kg, po or 0.5 mg/kg, iv; assay type: ADME, organism-based, Macaca mulatta; conditions: in vivo, read-out: Vdss
Hepatocyte = assay: Induction of CYP3A4 mRNA expression in human hepatocytes at 0.1 to 10 uM; assay type: ADME, cell-based
[3] = Oral bioavailability in Mongrel dog at 3 mg/kg; assay type: ADME, organism-based, Canis lupus familiaris; conditions: in vivo
[4] = Terminal half life in Sprague-Dawley rat at 10 mg/kg, po or 2 mg/kg, iv; assay type: ADME, organism-based; conditions: in vivo, read-out: beta t1/2 (converted)
[5] = Volume of distribution at steady state in Mongrel dog at 3 mg/kg, po or 1 mg/kg, iv; assay type: ADME, organism-based, Canis lupus familiaris; conditions: in vivo, read-out: Vdss
[6] = Intrinsic clearance in human microsomes; assay type: ADME, Microsome
MDR1 (P-gp, ABCB1) [7] = target: T2, MDR1 (P-gp, ABCB1) (Homo sapiens, UniProt P08183); assay: Substrate activity at MDR1 (unknown origin) assessed as apparent permeability; assay type: ADME; conditions: not told
T2 sequence (P08183 whole entry): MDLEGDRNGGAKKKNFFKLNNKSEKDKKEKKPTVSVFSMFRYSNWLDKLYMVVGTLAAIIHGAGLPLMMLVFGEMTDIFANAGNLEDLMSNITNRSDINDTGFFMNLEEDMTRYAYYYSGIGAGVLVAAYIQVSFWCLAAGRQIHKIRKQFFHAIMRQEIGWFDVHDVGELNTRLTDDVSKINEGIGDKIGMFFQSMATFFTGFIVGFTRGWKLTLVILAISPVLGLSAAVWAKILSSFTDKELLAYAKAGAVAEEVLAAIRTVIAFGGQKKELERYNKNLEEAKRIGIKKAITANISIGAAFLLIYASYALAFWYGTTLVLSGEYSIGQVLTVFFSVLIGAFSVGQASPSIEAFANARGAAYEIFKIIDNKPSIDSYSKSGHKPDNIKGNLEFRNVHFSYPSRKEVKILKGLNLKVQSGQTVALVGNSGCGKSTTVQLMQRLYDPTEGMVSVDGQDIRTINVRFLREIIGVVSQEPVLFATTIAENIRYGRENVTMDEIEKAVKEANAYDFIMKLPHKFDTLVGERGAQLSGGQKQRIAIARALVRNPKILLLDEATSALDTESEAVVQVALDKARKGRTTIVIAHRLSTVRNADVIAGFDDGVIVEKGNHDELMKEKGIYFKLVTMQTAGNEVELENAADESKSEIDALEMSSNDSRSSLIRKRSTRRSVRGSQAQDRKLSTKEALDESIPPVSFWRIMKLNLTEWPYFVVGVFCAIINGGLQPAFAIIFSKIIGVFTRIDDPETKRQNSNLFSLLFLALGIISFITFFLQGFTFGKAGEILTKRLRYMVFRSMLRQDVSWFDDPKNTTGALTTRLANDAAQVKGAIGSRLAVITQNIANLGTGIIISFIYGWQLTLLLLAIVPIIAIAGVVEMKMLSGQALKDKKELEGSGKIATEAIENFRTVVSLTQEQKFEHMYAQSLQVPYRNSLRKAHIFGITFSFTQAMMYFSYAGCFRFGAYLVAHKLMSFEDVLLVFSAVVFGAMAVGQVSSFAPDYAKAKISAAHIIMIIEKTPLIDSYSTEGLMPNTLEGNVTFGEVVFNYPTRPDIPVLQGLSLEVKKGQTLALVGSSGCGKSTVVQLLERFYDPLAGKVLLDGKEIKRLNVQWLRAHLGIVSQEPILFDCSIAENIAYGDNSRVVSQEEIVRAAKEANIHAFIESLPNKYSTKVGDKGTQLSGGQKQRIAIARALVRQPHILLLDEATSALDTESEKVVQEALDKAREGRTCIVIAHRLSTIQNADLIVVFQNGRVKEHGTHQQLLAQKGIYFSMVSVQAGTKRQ

[8] = Oral bioavailability in Sprague-Dawley rat at 10 mg/kg; assay type: ADME, organism-based; conditions: in vivo
[9] = Terminal half life in rhesus monkey at 1 mg/kg, po or 0.5 mg/kg, iv; assay type: ADME, organism-based, Macaca mulatta; conditions: in vivo, read-out: beta t1/2 (converted)
[10] = Clearance in Mongrel dog at 3 mg/kg, po or 1 mg/kg, iv; assay type: ADME, organism-based, Canis lupus familiaris; conditions: in vivo
[11] = Equilibrium solubility of the compound at pH <4; assay type: physicochemical
[12] = Kinetic solubility of the compound at pH 2; assay type: physicochemical; conditions: buffer, read-out: Kinetic_solubility
Cytochrome P450 3A4 = Cytochrome P450 3A4 (Homo sapiens, UniProt P08684); assay: Induction of CYP3A4 activity in human hepatocytes at 0.1 to 10 uM; assay type: ADME, cell-based
Chain of Cytochrome P450 3A4 (P08684 whole entry): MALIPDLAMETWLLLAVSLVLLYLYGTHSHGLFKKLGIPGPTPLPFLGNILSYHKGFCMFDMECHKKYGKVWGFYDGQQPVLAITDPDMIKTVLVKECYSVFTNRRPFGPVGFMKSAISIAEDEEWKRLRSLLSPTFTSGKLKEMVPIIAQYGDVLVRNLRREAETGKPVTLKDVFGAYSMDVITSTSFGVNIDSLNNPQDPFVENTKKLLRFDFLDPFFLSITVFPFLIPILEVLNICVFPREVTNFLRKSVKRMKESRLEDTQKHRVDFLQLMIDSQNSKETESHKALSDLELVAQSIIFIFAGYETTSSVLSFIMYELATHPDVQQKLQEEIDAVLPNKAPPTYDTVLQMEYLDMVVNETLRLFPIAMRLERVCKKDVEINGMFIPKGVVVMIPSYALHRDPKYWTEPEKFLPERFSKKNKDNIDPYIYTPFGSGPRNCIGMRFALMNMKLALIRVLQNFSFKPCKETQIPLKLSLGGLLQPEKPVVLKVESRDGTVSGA

[13] = Volume of distribution at steady state in Sprague-Dawley rat at 10 mg/kg, po or 2 mg/kg, iv; assay type: ADME, organism-based; conditions: in vivo, read-out: Vdss
[14] = Oral bioavailability in rhesus monkey at 1 mg/kg; assay type: ADME, organism-based, Macaca mulatta; conditions: in vivo
[15] = Inhibition of PDE4 (unknown origin); design: species or system Homo sapiens
Cytochrome P450 2C9 = Cytochrome P450 2C9 (Homo sapiens, UniProt P11712); assay: Competitive reversible inhibition of CYP2C9 (unknown origin); assay type: ADME
Chain of Cytochrome P450 2C9 (P11712 whole entry): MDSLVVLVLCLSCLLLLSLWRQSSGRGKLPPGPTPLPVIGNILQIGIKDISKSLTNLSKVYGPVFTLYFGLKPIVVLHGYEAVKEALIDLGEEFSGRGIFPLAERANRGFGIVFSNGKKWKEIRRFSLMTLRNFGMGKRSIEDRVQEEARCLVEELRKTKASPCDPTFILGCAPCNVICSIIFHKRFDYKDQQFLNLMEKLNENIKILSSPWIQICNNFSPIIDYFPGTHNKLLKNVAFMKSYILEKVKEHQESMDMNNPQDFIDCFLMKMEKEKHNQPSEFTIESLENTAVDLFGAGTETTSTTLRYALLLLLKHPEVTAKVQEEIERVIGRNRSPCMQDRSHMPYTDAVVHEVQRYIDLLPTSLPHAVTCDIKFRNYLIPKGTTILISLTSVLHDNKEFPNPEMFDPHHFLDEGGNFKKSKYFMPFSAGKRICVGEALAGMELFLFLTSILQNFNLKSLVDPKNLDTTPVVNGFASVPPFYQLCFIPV

[16] = Clearance in Sprague-Dawley rat at 10 mg/kg, po or 2 mg/kg, iv; assay type: ADME, organism-based; conditions: in vivo
[17] = target: T3, Polyunsaturated fatty acid 5-lipoxygenase (Homo sapiens, UniProt P09917); assay: Inhibition of recombinant human 5-LOX using arachidonic acid as substrate measured after 5 mins by fluorescence assay
T3 sequence (P09917 whole entry): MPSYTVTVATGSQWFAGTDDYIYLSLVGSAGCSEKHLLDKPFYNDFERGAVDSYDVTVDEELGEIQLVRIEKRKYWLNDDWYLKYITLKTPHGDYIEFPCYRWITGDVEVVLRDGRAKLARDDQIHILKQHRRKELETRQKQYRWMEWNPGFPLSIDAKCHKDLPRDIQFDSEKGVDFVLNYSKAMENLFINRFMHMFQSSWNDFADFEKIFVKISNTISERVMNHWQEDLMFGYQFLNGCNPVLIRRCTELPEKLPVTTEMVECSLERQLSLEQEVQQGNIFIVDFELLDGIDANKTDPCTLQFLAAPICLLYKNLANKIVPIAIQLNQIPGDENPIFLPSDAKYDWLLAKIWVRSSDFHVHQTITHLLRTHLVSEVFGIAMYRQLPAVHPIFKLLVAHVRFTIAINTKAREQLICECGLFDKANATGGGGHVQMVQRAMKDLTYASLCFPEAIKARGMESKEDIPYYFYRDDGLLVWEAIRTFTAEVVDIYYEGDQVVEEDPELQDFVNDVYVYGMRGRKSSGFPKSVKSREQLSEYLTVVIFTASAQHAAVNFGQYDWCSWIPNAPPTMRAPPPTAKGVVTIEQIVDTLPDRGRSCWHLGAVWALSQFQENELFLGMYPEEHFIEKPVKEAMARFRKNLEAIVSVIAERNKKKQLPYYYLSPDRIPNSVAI

[18] = Lipophilicity, log D of the compound by HPLC method; assay type: physicochemical
[19] = Terminal half life in Mongrel dog at 3 mg/kg, po or 1 mg/kg, iv; assay type: ADME, organism-based, Canis lupus familiaris; conditions: in vivo, read-out: beta t1/2 (converted)
[20] = Kinetic solubility of the compound at pH 7; assay type: physicochemical; conditions: buffer, read-out: Kinetic_solubility
[21] = Equilibrium solubility of the compound at pH 8 to 10; assay type: physicochemical; conditions: buffer
[22] = Clearance in rhesus monkey at 1 mg/kg, po or 0.5 mg/kg, iv; assay type: ADME, organism-based, Macaca mulatta; conditions: in vivo
[23] = target: Voltage-gated inwardly rectifying potassium channel KCNH2 (Homo sapiens, UniProt Q12809)
Chain of Voltage-gated inwardly rectifying potassium channel KCNH2 (Q12809 whole entry): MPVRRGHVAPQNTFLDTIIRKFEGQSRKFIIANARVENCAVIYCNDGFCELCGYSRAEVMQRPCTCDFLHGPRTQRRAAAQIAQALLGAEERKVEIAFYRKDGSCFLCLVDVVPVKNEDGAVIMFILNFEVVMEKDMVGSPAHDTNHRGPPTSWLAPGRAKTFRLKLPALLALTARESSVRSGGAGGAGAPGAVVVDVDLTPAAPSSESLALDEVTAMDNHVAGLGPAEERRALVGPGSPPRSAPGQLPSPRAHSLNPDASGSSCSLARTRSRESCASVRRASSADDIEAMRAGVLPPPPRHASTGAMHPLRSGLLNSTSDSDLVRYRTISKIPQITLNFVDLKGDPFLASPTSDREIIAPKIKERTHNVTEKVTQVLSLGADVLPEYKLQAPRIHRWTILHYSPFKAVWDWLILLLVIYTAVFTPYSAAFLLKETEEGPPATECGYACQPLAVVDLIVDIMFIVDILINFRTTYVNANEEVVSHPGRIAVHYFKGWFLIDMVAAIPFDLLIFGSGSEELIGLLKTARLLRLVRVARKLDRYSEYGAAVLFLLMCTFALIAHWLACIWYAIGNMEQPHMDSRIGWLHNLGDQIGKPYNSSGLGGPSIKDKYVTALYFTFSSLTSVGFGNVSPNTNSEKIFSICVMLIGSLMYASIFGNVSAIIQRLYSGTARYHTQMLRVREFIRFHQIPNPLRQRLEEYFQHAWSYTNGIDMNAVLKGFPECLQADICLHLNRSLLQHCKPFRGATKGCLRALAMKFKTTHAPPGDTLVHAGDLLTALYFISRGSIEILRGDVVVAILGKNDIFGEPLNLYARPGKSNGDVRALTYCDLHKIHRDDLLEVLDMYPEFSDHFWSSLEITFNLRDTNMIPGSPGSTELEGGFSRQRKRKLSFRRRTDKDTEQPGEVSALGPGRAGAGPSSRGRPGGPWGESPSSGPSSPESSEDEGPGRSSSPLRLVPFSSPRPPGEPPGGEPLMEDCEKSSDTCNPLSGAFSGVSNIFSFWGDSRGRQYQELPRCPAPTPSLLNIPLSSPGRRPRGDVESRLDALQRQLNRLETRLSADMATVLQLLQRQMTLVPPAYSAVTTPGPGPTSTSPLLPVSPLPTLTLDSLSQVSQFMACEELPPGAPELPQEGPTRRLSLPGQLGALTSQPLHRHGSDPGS

MDR1 (P-gp, ABCB1) [24] = target: T2, MDR1 (P-gp, ABCB1); assay: Substrate activity at MDR1 (unknown origin) assessed as efflux ratio of permeability from basolateral to apical side over apical to basolateral side; assay type: ADME; conditions: not told
[25] = Ratio of total drug level in cerebrospinal fluid to unbound plasma concentration in Sprague-Dawley rat at 10 mg/kg, po; assay type: ADME, organism-based, CSF/Plasma; conditions: in vivo
[26] = Equilibrium solubility of the compound in simulated gastric fluid using crystalline compound; assay type: physicochemical
[27] = Equilibrium solubility of the compound in fasted state simulated intestinal fluid using crystalline compound; assay type: physicochemical

SMILES: COc1ccc(Cn2cc3c(=O)n(-c4ccccc4)nc-3c3ccccc32)cc1
IP [1]: 8.9 µM

SMILES: Cc1ccc(Cc2cc3c(=O)n([C@H]4CCCC[C@@H]4O)cnc3c3ccccc23)cn1 [MK-7622]
Vd [2]: 1.2 L/kg
Activity (Hepatocyte): Not Active
bioavailability [3]: 76%
half-life [4]: 1.3 h
Vd [5]: 2.4 L/kg
CLint scaled [6]: 15 mL/min/kg
Papp (MDR1 (P-gp, ABCB1) [7]): 33 ×10⁻⁶ cm/s
bioavailability [8]: 56%
half-life [9]: 1.8 h
clearance [10]: 4.5 mL/min/kg
solubility thermodynamic [11]: 6000 to 9000 µg/mL (≈ 15 to 22.5 mM)
solubility kinetic [12]: 191 µM (≈ 76.3 µg/mL)
Activity (Cytochrome P450 3A4): Not Active
Vd [13]: 0.94 L/kg
bioavailability [14]: 40%
IC50 [15]: 2.1 µM
IC50 (Cytochrome P450 2C9): 13.3 µM
clearance [16]: 18.9 mL/min/kg
IC50 [17]: 4.4 µM
logD [18]: 2.6
half-life [19]: 8.7 h
solubility kinetic [20]: 17 µM (≈ 6.79 µg/mL)
solubility thermodynamic [21]: < 1 µg/mL
clearance [22]: 7.6 mL/min/kg

SMILES: COc1ccc(Cn2cc3c(=O)[nH]nc-3c3ccccc32)cc1
IP [1]: 57 µM

SMILES: COc1ccc(Cc2cc3c(=O)n([C@H]4CCCC[C@@H]4O)cnc3c3ccccc23)cc1
IP [1]: 0.22 µM

SMILES: Cc1ccc(Cc2cc3c(=O)n([C@H]4CCCC[C@@H]4O)cnc3c3ccccc23)cn1.O=C(O)/C=C/C(=O)O
solubility thermodynamic [26]: 2300 µg/mL
solubility thermodynamic [27]: 40 µg/mL

SMILES: COc1ccc(Cc2cc3c(=O)n([C@H]4CCCC[C@@H]4O)cnc3c3ccccc23)cn1
IP [1]: 0.018 µM
solubility kinetic [12]: 71 µM (≈ 29.5 µg/mL)
IC50 [23]: 6.4 µM
logD [18]: 3
solubility kinetic [20]: < 3 µM
Ratio [25]: 1

SMILES: COc1ccc(Cc2cc3c(=O)n(-c4ccccc4F)cnc3c3ccccc23)cc1
IP [1]: 0.82 µM

SMILES: O=c1c2cc(Cc3cccnc3)c3ccccc3c2ncn1[C@H]1CCCC[C@@H]1O (relative stereo)
IP [1]: 0.042 µM
solubility kinetic [12]: 181 µM (≈ 69.8 µg/mL)
IC50 [23]: 12 µM
logD [18]: 2.4
solubility kinetic [20]: 34 µM (≈ 13.1 µg/mL)
Ratio [25]: 0.5

SMILES: COc1ccc(Cn2cc3c(=O)onc-3c3ccccc32)cc1
IP [1]: > 100 µM

Continued, in another order:

IP [1]: 0.66 µM
SMILES: COc1ccc(Cn2cc(C(=O)O)c(=O)c3ccccc32)cc1

IP [1]: 0.41 µM
SMILES: COc1ccc(Cn2cc3c(=O)n(-c4ccccc4F)nc-3c3ccccc32)cc1

IP [1]: 3.3 µM
SMILES: COc1ccc(Cc2cc3c(=O)n(-c4ccccc4F)ccc3c3ccccc23)cc1

IP [1]: 0.013 to 0.015 µM
solubility kinetic [12]: < 2 µM
efflux ratio (MDR1 (P-gp, ABCB1) [24]): 1.1
logD [18]: 3.1
solubility kinetic [20]: < 2 µM
Ratio [25]: 0.9
SMILES: O=c1c2cc(Cc3ccc(Cl)nc3)c3ccccc3c2ncn1[C@H]1CCCC[C@@H]1O
IC50 [23]: 13 µM

IP [1]: 0.052 µM
SMILES: COc1ccc(Cc2cc3c(c4ccccc24)CN([C@H]2CCCC[C@@H]2O)C3=O)cc1

IP [1]: 0.021 µM
solubility kinetic [12]: 102 µM (≈ 44 µg/mL)
logD [18]: 3.2
solubility kinetic [20]: < 2 µM
SMILES: CSc1ccc(Cc2cc3c(=O)n([C@H]4CCCC[C@@H]4O)cnc3c3ccccc23)cn1
IC50 [23]: 7.5 µM
